Data: US20190308988A1, “OPIOID RECEPTOR ANTAGONIST PRODRUGS” (Nirsum Laboratories, Inc., priority 2017, published 2019)
≈ marks a conversion by molar mass, not a printed value.

What was measured:
[1] = Polymorph screening of solid state drug substances (Table 23); type: physicochemical; details: stirred 50 °C 72 hours; for Dry method and appearance: dried solid
[2] = Solubility determination in oil (Table 10); details: for solubility at 24 h: 25 °C, Obs. Temp. 25 °C; for solubility at 24 h / solubility / solubility thermodynamic: thermodynamic from solid; for solubility thermodynamic: water, Equilibrium solubility: Water
Protocol: A known amount of test substance (˜40 mg) was weighed into the vial, 100 μL of oil was added and heated to 60° C. and then system was slurried to reach equilibrium. […] Extra oil was added into the vial once compound precipitated out and then the system was re-equilibrated at 1000 rpm at room temperature (25° C.). Final concentration was determined by HPLC method as described below in Table 6a and 6b.

[3] = oil or lipid, Approximate Solubility in Excipient: Cottonseed oil, Heating Temp. 60 °C
[4] = oil or lipid, Approximate Solubility in Excipient: Sesame oil, Heating Temp. 60 °C
[5] = 40 °C, oil or lipid, Approximate Solubility in Excipient: Cottonseed oil, Heating Temp. 40 °C, Obs. Temp. 40 °C
[6] = 40 °C, oil or lipid, Approximate Solubility in Excipient: Sesame oil, Heating Temp. 40 °C, Obs. Temp. 40 °C
[7] = 40 °C, organic solvent or mixture, Approximate Solubility in Excipient: Ethanol, Heating Temp. 40 °C, Obs. Temp. 40 °C
[8] = 40 °C, Heating Temp. 40 °C, Obs. Temp. 40 °C
[9] = 40 °C, oil or lipid, Approximate Solubility in Excipient: Cottonseed oil, Heating Temp. 60 °C, Obs. Temp. 40 °C
[10] = 40 °C, oil or lipid, Approximate Solubility in Excipient: Sesame oil, Heating Temp. 60 °C, Obs. Temp. 40 °C
[11] = 40 °C, organic solvent or mixture, Approximate Solubility in Excipient: Ethanol, Heating Temp. 60 °C, Obs. Temp. 40 °C
[12] = 40 °C, Heating Temp. 60 °C, Obs. Temp. 40 °C
[13] = Heating Temp. 60 °C, Obs. Temp. 40 °C

| SMILES | XRPD results (Dried) ([1]; Acetone) | Dry method and appearance ([1]; Acetone) | XRPD results (Dried) ([1]; EtOAc) | Dry method and appearance ([1]; EtOAc) | XRPD results (Dried) ([1]; Heptane) | Dry method and appearance ([1]; Heptane) | XRPD results (Dried) ([1]; Isopropanol) | Dry method and appearance ([1]; Isopropanol) | XRPD results (Dried) ([1]; MTBE) | Dry method and appearance ([1]; MTBE) | solubility at 24 h [2, 3] [mg/mL] | solubility at 24 h [2, 4] [mg/mL] | solubility [2, 5] [mg/mL] | solubility [2, 6] [mg/mL] | solubility [2, 7] [mg/mL] | solubility thermodynamic [2, 8] [mg/mL] | further results |
| --- | --- | --- | --- | --- | --- | --- | --- | --- | --- | --- | --- | --- | --- | --- | --- | --- | --- |
| CCCCCCCCCCCCOC(=O)Oc1ccc2c3c1O[C@H]1C(=O)CC[C@@]4(O)C(C2)N(CC2CC2)CC[C@]314 [Compound 11, (4aS,7aR,12bS)-3-(cyclopropylmethyl)-4a-hydroxy-7-oxo-2,3,4,4a,5,6,7,7a-octahydro-1H-4,12-methanobenzofuro[3,2-e]isoquinolin-9-yl dodecyl carbonate] | Pattern A | Evaporation/white powder | Pattern A | Evaporation/white powder | Pattern B | Evaporation/white powder | Pattern A | Evaporation/white powder | Pattern A | Evaporation/white powder | < 51 | < 50 | > 407 | > 407 | > 218 | 0.0005 (≈ 0.000903 mM) | solubility thermodynamic ([2]; after slurry in Heptane, temperatures N/A): 0.0026 mg/mL (≈ 0.0047 mM) |
| C=C1CC[C@@]2(O)C3Cc4ccc(OC(=O)OCCCCCCCCCCCCCCCC)c5c4[C@@]2(CCN3CC2CC2)[C@H]1O5 [Compound 19, (4aS,7aS,12bS)-3-(cyclopropylmethyl)-4a-hydroxy-7-methylene-2,3,4,4a,5,6,7,7a-octahydro-1H-4,12-methanobenzofuro[3,2-e]isoquinolin-9-yl hexadecyl carbonate] | Pattern A | Evaporation/white powder | Pattern A | Evaporation/white powder | Pattern A | Evaporation/white powder | Pattern A | Evaporation/white powder | Pattern A | Evaporation/white powder |  |  | 67 to 80 (≈ 110 to 132 mM) | 103 to 137 (≈ 169 to 225 mM) | 27 to 42 (≈ 44.4 to 69.1 mM) | 0.0468 (≈ 0.077 mM) |  |
| CCCCCCCCCCCCCCCCOC(=O)Oc1ccc2c3c1O[C@H]1C(=O)CC[C@@]4(O)C(C2)N(CC2CC2)CC[C@]314 [Compound 21, (4aS,7aR,12bS)-3-(cyclopropylmethyl)-4a-hydroxy-7-oxo-2,3,4,4a,5,6,7,7a-octahydro-1H-4,12-methanobenzofuro[3,2-e]isoquinolin-9-yl hexadecyl carbonate] | Pattern A | Evaporation/white powder | Pattern A | Evaporation/white powder | Pattern A | Evaporation/white powder | Pattern A | Evaporation/white powder | Pattern A | Evaporation/white powder |  |  |  |  |  |  | solubility [2, 9]: 101 to 135 mg/mL (≈ 166 to 221 mM); solubility [2, 10]: 101 to 134 mg/mL (≈ 166 to 221 mM); solubility [2, 11]: 50 to 100 mg/mL (≈ 82 to 164 mM); solubility thermodynamic [2, 12]: 0.0006 mg/mL (≈ 0.000984 mM) |
| C=C1CC[C@@]2(O)[C@H]3Cc4ccc(O)c5c4[C@@]2(CCN3CC2CC2)[C@H]1O5 [61 (Nalmefene)] |  |  |  |  |  |  |  |  |  |  |  |  |  |  |  |  | Approximate Solubility in Excipient: Cottonseed oil [2, 13]: <25.0 mg/mL; Approximate Solubility in Excipient: Ethanol [2, 13]: 102 to 137 mg/mL; Approximate Solubility in Excipient: Sesame oil [2, 13]: <25.5 mg/mL; Equilibrium solubility: Water [2, 13]: 0.025 mg/mL |
| C=C1CC[C@@]2(O)C3Cc4ccc(OC(=O)OCCCCCCCCCCCCCCCCCCCC)c5c4[C@@]2(CCN3CC2CC2)[C@H]1O5 [Compound 28, (4aS,7aS,12bS)-3-(cyclopropylmethyl)-4a-hydroxy-7-methylene-2,3,4,4a,5,6,7,7a-octahydro-1H-4,12-methanobenzofuro[3,2-e]isoquinolin-9-yl icosyl carbonate] |  |  |  |  |  |  |  |  |  |  | < 50.2 | < 50.6 |  |  |  | < 0.001 |  |
| CCCCCCCCCCCCCCCCCCCCCC(=O)Oc1ccc2c3c1O[C@H]1C(=O)CC[C@@]4(O)C(C2)N(CC2CC2)CC[C@]314 [Compound 51, (4aS,7aR,12bS)-3-(cyclopropylmethyl)-4a-hydroxy-7-oxo-2,3,4,4a,5,6,7,7a-octahydro-1H-4,12-methanobenzofuro[3,2-e]isoquinolin-9-yl docosanoate] |  |  |  |  |  |  |  |  |  |  | < 50 | < 46 |  |  |  | < 0.001 |  |
| C=C1CC[C@@]2(O)C3Cc4ccc(OC(=O)CCCCCCCCCCC/C=C\CCCCCCCC)c5c4[C@@]2(CCN3CC2CC2)[C@H]1O5 [Compound 13, (4aS,7aS,12bS)-3-(cyclopropylmethyl)-4a-hydroxy-7-methylene-2,3,4,4a,5,6,7,7a-octahydro-1H-4,12-methanobenzofuro[3,2-e]isoquinolin-9-yl (Z)-docos-13-enoate] |  |  |  |  |  |  |  |  |  |  | < 50 | 91 to 121 (≈ 138 to 183 mM) | > 381 | > 406 | > 214 | 0.002 (≈ 0.00303 mM) |  |
| CCCCCCCCCCOC(=O)Oc1ccc2c3c1O[C@H]1C(=O)CC[C@@]4(O)C(C2)N(CC2CC2)CC[C@]314 [Compound 10, (4aS,7aR,12bS)-3-(cyclopropylmethyl)-4a-hydroxy-7-oxo-2,3,4,4a,5,6,7,7a-octahydro-1H-4,12-methanobenzofuro[3,2-e]isoquinolin-9-yl decyl carbonate] | Pattern A | Evaporation/White wax | Pattern A | Evaporation/White wax | Pattern A | Centrifugation/White wax | Pattern A | Evaporation/White wax | Pattern A | Evaporation/White wax |  |  |  |  |  |  |  |
| CCCCCCCCCCCCCCCCOC(=O)OCOc1ccc2c3c1O[C@H]1C(=O)CC[C@@]4(O)C(C2)N(CC2CC2)CC[C@]314 [Compound 47, (((4aS,7aR,12bS)-3-(cyclopropylmethyl)-4a-hydroxy-7-oxo-2,3,4,4a,5,6,7,7a-octahydro-1H-4,12-methanobenzofuro[3,2-e]isoquinolin-9-yl)oxy)methyl hexadecyl carbonate] |  |  |  |  |  |  |  |  |  |  | > 406 | > 405 |  |  |  | < 0.001 |  |
| CCCCCCCC/C=C\CCCCCCCCCCCC(=O)Oc1ccc2c3c1O[C@H]1C(=O)CC[C@@]4(O)C(C2)N(CC2CC2)CC[C@]314 [Compound 22, (4aS,7aR,12bS)-3-(cyclopropylmethyl)-4a-hydroxy-7-oxo-2,3,4,4a,5,6,7,7a-octahydro-1H-4,12-methanobenzofuro[3,2-e]isoquinolin-9-yl (Z)-docos-13-enoate] |  |  |  |  |  |  |  |  |  |  | 67 to 80 (≈ 101 to 121 mM) | 67 to 80 (≈ 101 to 121 mM) |  |  |  |  | solubility [2, 9]: > 406 mg/mL; solubility [2, 10]: > 402 mg/mL; solubility [2, 11]: > 398 mg/mL; solubility thermodynamic [2, 12]: 0.0314 mg/mL (≈ 0.0474 mM) |
| CC(C)(C)CC(=O)Oc1ccc2c3c1O[C@H]1C(=O)CC[C@@]4(O)C(C2)N(CC2CC2)CC[C@]314 [Compound 42, (4aS,7aR,12bS)-3-(cyclopropylmethyl)-4a-hydroxy-7-oxo-2,3,4,4a,5,6,7,7a-octahydro-1H-4,12-methanobenzofuro[3,2-e]isoquinolin-9-yl 3,3-dimethylbutanoate] |  |  |  |  |  |  |  |  |  |  |  |  | < 51 | < 52 | 78 to 93 (≈ 177 to 212 mM) | 0.245 (≈ 0.557 mM) | solubility [2, 9]: < 26 mg/mL; solubility [2, 10]: < 25.8 mg/mL; solubility thermodynamic [2, 12]: 0.068 mg/mL (≈ 0.155 mM) |
| C=C1CC[C@@]2(O)C3Cc4ccc(OC(=O)OCCCCCCCCCC)c5c4[C@@]2(CCN3CC2CC2)[C@H]1O5 [Compound 18, (4aS,7aS,12bS)-3-(cyclopropylmethyl)-4a-hydroxy-7-methylene-2,3,4,4a,5,6,7,7a-octahydro-1H-4,12-methanobenzofuro[3,2-e]isoquinolin-9-yl decyl carbonate] |  |  |  |  |  |  |  |  |  |  | > 400 | > 402 | > 403 | > 403 | > 209 | < 0.0002 |  |
